One series deals with T1, hAMY3 receptor (Homo sapiens, UniProt O60896+P30988).
T1 sequence (P30988 25-474): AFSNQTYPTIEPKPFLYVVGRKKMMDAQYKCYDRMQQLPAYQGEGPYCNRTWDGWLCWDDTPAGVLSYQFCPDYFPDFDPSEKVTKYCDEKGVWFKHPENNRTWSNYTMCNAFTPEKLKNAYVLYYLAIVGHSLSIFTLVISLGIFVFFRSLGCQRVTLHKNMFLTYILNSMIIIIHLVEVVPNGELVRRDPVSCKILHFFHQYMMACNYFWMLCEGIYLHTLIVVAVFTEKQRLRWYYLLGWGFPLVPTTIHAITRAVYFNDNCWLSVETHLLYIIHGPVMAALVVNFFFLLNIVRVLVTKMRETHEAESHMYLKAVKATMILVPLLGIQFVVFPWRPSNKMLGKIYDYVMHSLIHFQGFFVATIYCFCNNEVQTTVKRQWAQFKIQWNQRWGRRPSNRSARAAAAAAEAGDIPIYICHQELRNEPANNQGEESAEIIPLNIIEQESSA
T1 sequence (O60896 24-148 partner): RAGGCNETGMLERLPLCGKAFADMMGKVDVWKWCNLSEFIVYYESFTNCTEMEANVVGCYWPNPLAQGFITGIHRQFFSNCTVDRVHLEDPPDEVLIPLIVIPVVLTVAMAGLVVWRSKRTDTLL
As to the kind of experiment: cAMP assay for in vitro receptor activation, hAMY3-R. The class given is cell-based. As to conditions: cAMP assay, hAMY3 receptor; read-out: hAMY3R EC50. Put shortly: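 Graded compound concentrations were applied for 30 min at room temperature to stably hAMY3-expressing cells in DPBS, 0.05% casein, 0.5 mM IBMX; cAMP detected by TR-FRET.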
A general note: cAMP levels reflect the balance of adenylyl cyclase and phosphodiesterase activity.

Series [1] can be described thus: Physical stability of peptide analogues (Thioflavin T fibrillation). As to conditions: maximum ThT signal normalized between hAMY maximum and buffer background; 40° C., shaking, four days; pH 7 per table title. The class given is physicochemical. The gist of the method:
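Samples are stressed at 40 °C for four days, being shaken at 700 rpm before each 10-min fluorescence reading of 4 μM Thioflavin T. Buffers were pH 4 acetate or pH 7 phosphate. Reported values are smoothed maximum ThT signals as a percentage of the hAMY-to-background range.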

This note sets out measurements from patent publication US12139520B2 (priority 2020, dated 2024).

Bridge positions count the residues as written; N and C are the ends. Square brackets hold non-standard residues; d marks the D form. Peptide text beside a SMILES is read from it. Hyp = O=C(O)[C@@H]1C[C@@H](O)CN1; Cit = NC(=O)NCCC[C@H](N)C(=O)O

Consider `CC[C@H](C)[C@H](NC(=O)[C@H](CCC(N)=O)NC(=O)[C@H](Cc1c[nH]cn1)NC(=O)[C@H](C)NC(=O)[C@H](CC(C)C)NC(=O)[C@H](CCCNC(=N)N)NC(=O)[C@H](CCC(N)=O)NC(=O)[C@@H](NC(=O)[C@@H](NC(=O)[C@@H]1CSSC[C@H](NC(=O)CN)C(=O)N[C@@H](CCCNC(=N)N)C(=O)N[C@@H]([C@@H](C)O)C(=O)NCC(=O)N[C@@H]([C@@H](C)O)C(=O)N1)[C@@H](C)O)C(C)C)C(=O)N[C@@H](Cc1ccc(O)cc1)C(=O)N[C@@H](CCC(N)=O)C(=O)N[C@@H](Cc1ccccc1)C(=O)N[C@H](C(=O)N[C@@H](CC(=O)O)C(=O)N[C@@H](CCCCN)C(=O)N[C@@H](CC(=O)O)C(=O)N[C@@H](CCCCN)C(=O)N[C@@H](CC(=O)O)C(=O)N[C@@H](CC(N)=O)C(=O)N[C@H](C(=O)N[C@@H](C)C(=O)N1CCC[C@H]1C(=O)N[C@@H](CCCNC(=N)N)C(=O)N[C@@H](CO)C(=O)N[C@@H](CCCCN)C(=O)N[C@H](C(=O)NCC(=O)N1CCC[C@H]1C(=O)N[C@@H](CCC(N)=O)C(=O)NCC(=O)N[C@@H](Cc1ccc(O)cc1)C(N)=O)C(C)C)C(C)C)[C@@H](C)O` [compound 129] (H-GCRTGTCTVQRLAHQIYQFTDKDKDNVAPRSKVGPQGY-NH2; disulfide 2-7), for which the EC50 (usually the concentration needed to bring the measured effect to its halfway point) at hAMY3 receptor stood at 0.029 nM. Also, the “Max ThT signal (%)” value in series [1] turned out to be 1.400%.

Consider `CC[C@H](C)[C@H](NC(=O)[C@H](CCC(N)=O)NC(=O)[C@H](Cc1c[nH]cn1)NC(=O)[C@H](C)NC(=O)[C@H](CC(C)C)NC(=O)[C@H](CCCNC(=N)N)NC(=O)[C@H](CCC(N)=O)NC(=O)[C@@H](NC(=O)[C@@H](NC(=O)[C@@H]1CSSC[C@H](NC(=O)CN)C(=O)N[C@@H](CCCNC(=N)N)C(=O)N[C@@H](Cc2ccccc2)C(=O)NCC(=O)N[C@@H]([C@@H](C)O)C(=O)N1)[C@@H](C)O)C(C)C)C(=O)N[C@@H](Cc1ccc(O)cc1)C(=O)N[C@@H](CCC(N)=O)C(=O)N[C@@H](Cc1ccccc1)C(=O)N[C@H](C(=O)N[C@@H](CC(=O)O)C(=O)N[C@@H](CCCCN)C(=O)N[C@@H](CC(=O)O)C(=O)N[C@@H](CCCCN)C(=O)N[C@@H](CC(=O)O)C(=O)N[C@@H](CC(N)=O)C(=O)N[C@H](C(=O)N[C@@H](C)C(=O)N1CCC[C@H]1C(=O)N[C@@H](CCCNC(=N)N)C(=O)N[C@H](C(=O)N[C@@H](CCCCN)C(=O)N[C@H](C(=O)N[C@@H](CO)C(=O)N1CCC[C@H]1C(=O)N[C@@H](CC(N)=O)C(=O)NCC(=O)N[C@@H](Cc1ccc(O)cc1)C(N)=O)C(C)C)[C@@H](C)O)C(C)C)[C@@H](C)O` [compound 385] (H-GCRFGTCTVQRLAHQIYQFTDKDKDNVAPRTKVSPNGY-NH2; disulfide 2-7; N-terminus assumed), for which the EC50 at hAMY3 receptor turned out to be 0.036 nM. In series [1], the “Max ThT signal (%)” value came to 8.800%.

On to `CC[C@H](C)[C@H](NC(=O)[C@H](CCC(N)=O)NC(=O)[C@H](Cc1c[nH]cn1)NC(=O)[C@H](C)NC(=O)[C@H](CC(C)C)NC(=O)[C@H](CCCNC(=N)N)NC(=O)[C@H](CCC(N)=O)NC(=O)[C@@H](NC(=O)[C@@H](NC(=O)[C@@H]1CSSC[C@H](NC(=O)CN)C(=O)N[C@@H](CCCNC(=N)N)C(=O)N[C@@H](Cc2ccccc2)C(=O)NCC(=O)N[C@@H]([C@@H](C)O)C(=O)N1)[C@@H](C)O)C(C)C)C(=O)N[C@@H](Cc1ccc(O)cc1)C(=O)N[C@@H](CCC(N)=O)C(=O)N[C@@H](Cc1ccccc1)C(=O)N[C@H](C(=O)N[C@@H](CC(=O)O)C(=O)N[C@@H](CCCCN)C(=O)N[C@@H](CC(=O)O)C(=O)N[C@@H](CCCCN)C(=O)N[C@@H](CC(=O)O)C(=O)N[C@@H](CC(N)=O)C(=O)N[C@H](C(=O)N[C@@H](C)C(=O)N1CCC[C@H]1C(=O)N[C@@H](CCCNC(=N)N)C(=O)N[C@H](C(=O)N[C@@H](CC(N)=O)C(=O)N[C@H](C(=O)N[C@@H](CO)C(=O)N1CCC[C@H]1C(=O)N[C@@H](CC(N)=O)C(=O)NCC(=O)N[C@@H](Cc1ccc(O)cc1)C(N)=O)[C@@H](C)CC)[C@@H](C)O)C(C)C)[C@@H](C)O` [compound 366] (H-GCRFGTCTVQRLAHQIYQFTDKDKDNVAPRTNISPNGY-NH2; disulfide 2-7; N-terminus assumed), for which the EC50 at hAMY3 receptor amounted to 0.013 nM. The “Max ThT signal (%)” value in series [1] is on record as 3.300%.

As to `CC[C@H](C)[C@H](NC(=O)[C@H](CCC(N)=O)NC(=O)[C@H](Cc1c[nH]cn1)NC(=O)[C@H](C)NC(=O)[C@H](CC(C)C)NC(=O)[C@H](CCCNC(N)=O)NC(=O)[C@H](CCC(N)=O)NC(=O)[C@@H](NC(=O)[C@@H](NC(=O)[C@@H]1CSSC[C@H](NC(=O)[C@@H](N)CCCCN)C(=O)N[C@@H](CC(N)=O)C(=O)N[C@@H]([C@@H](C)O)C(=O)N[C@@H](C)C(=O)N[C@@H]([C@@H](C)O)C(=O)N1)[C@@H](C)O)C(C)C)C(=O)N[C@@H](Cc1ccc(O)cc1)C(=O)N[C@@H](CCC(N)=O)C(=O)N[C@@H](Cc1ccccc1)C(=O)N[C@H](C(=O)N[C@@H](CC(=O)O)C(=O)N[C@@H](CCCCN)C(=O)N[C@@H](CC(=O)O)C(=O)N[C@@H](CCCCN)C(=O)N[C@@H](CC(=O)O)C(=O)N[C@@H](CC(N)=O)C(=O)N[C@H](C(=O)N[C@@H](C)C(=O)N1CCC[C@H]1C(=O)N[C@@H](CCCNC(=N)N)C(=O)N[C@H](C(=O)N[C@@H](CCCCN)C(=O)N[C@H](C(=O)NCC(=O)N[C@@H](CO)C(=O)N[C@@H](CC(N)=O)C(=O)NCC(=O)N[C@@H](Cc1ccc(O)cc1)C(N)=O)C(C)C)[C@@H](C)O)C(C)C)[C@@H](C)O` [compound 257] (H-KCNTATCTVQ[Cit]LAHQIYQFTDKDKDNVAPRTKVGSNGY-NH2; disulfide 2-7; N-terminus assumed), on hAMY3 receptor, the EC50 is 0.016 nM. In addition, in series [1], the “Max ThT signal (%)” value is 20.950%.

Regarding `CC[C@H](C)[C@H](NC(=O)[C@H](CCC(N)=O)NC(=O)[C@H](Cc1c[nH]cn1)NC(=O)[C@H](C)NC(=O)[C@H](CC(C)C)NC(=O)[C@H](CCCNC(=N)N)NC(=O)[C@H](CCC(N)=O)NC(=O)[C@@H](NC(=O)[C@@H](NC(=O)[C@@H]1CSSC[C@H](NC(=O)CN)C(=O)N[C@@H](CCCNC(=N)N)C(=O)N[C@@H](Cc2ccccc2)C(=O)NCC(=O)N[C@@H]([C@@H](C)O)C(=O)N1)[C@@H](C)O)C(C)C)C(=O)N[C@@H](Cc1ccc(O)cc1)C(=O)N[C@@H](CCC(N)=O)C(=O)N[C@@H](Cc1ccccc1)C(=O)N[C@H](C(=O)N[C@@H](CC(=O)O)C(=O)N[C@@H](CCCCN)C(=O)N[C@@H](CC(=O)O)C(=O)N[C@@H](CCCCN)C(=O)N[C@@H](CC(=O)O)C(=O)N[C@@H](CC(N)=O)C(=O)N[C@H](C(=O)N[C@@H](C)C(=O)N1CCC[C@H]1C(=O)N[C@@H](CCCNC(=N)N)C(=O)N[C@H](C(=O)N[C@@H](CCCCN)C(=O)N[C@H](C(=O)N[C@@H](CO)C(=O)N1CCC[C@H]1C(=O)N[C@@H](CCC(N)=O)C(=O)NCC(=O)N1C[C@H](O)C[C@H]1C(N)=O)C(C)C)[C@@H](C)O)C(C)C)[C@@H](C)O` [compound 132] (H-GCRFGTCTVQRLAHQIYQFTDKDKDNVAPRTKVSPQG[Hyp]-NH2; disulfide 2-7; N-terminus assumed), the EC50 at hAMY3 receptor was 0.031 nM. Also, in series [1], the “Max ThT signal (%)” value stood at 5.200%.

On to `CC[C@H](C)[C@H](NC(=O)[C@H](CCC(N)=O)NC(=O)[C@H](Cc1c[nH]cn1)NC(=O)[C@H](C)NC(=O)[C@H](CC(C)C)NC(=O)[C@H](CCCNC(=N)N)NC(=O)[C@H](CCC(N)=O)NC(=O)[C@@H](NC(=O)[C@@H](NC(=O)[C@@H]1CSSC[C@H](NC(=O)CN)C(=O)N[C@@H](CCCNC(=N)N)C(=O)N[C@@H]([C@@H](C)O)C(=O)NCC(=O)N[C@@H]([C@@H](C)O)C(=O)N1)[C@@H](C)O)C(C)C)C(=O)N[C@@H](Cc1ccc(O)cc1)C(=O)N[C@@H](CCC(N)=O)C(=O)N[C@@H](Cc1ccccc1)C(=O)N[C@H](C(=O)N[C@@H](CC(=O)O)C(=O)N[C@@H](CCCCN)C(=O)N[C@@H](CC(=O)O)C(=O)N[C@@H](CCCCN)C(=O)N[C@@H](CC(=O)O)C(=O)N[C@@H](CC(N)=O)C(=O)N[C@H](C(=O)N[C@@H](C)C(=O)N1CCC[C@H]1C(=O)N[C@@H](CCCNC(=N)N)C(=O)N[C@H](C(=O)N[C@@H](CC(N)=O)C(=O)N[C@H](C(=O)NCC(=O)N1CCC[C@H]1C(=O)N[C@@H](CCC(N)=O)C(=O)NCC(=O)N1C[C@H](O)C[C@H]1C(N)=O)C(C)C)[C@@H](C)O)C(C)C)[C@@H](C)O` [compound 49] (H-GCRTGTCTVQRLAHQIYQFTDKDKDNVAPRTNVGPQG[Hyp]-NH2; disulfide 2-7; N-terminus assumed), for which the EC50 at hAMY3 receptor stood at 0.011 nM. In series [1], the “Max ThT signal (%)” value is given as 3.200%.
